Reference: PubChem BioAssay (NCI)
Where “and” joins values, the source holds several entries; their conditions need not be identical. Equal entries are not always repeated.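 A five-concentration, 48-hour dose response in 96-well plates underlies each endpoint, interpolated linearly between surrounding concentrations. GI50 marks 50% less growth. TGI: concentration producing complete growth inhibition.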

Columns and labels:
Test in all cases: NCI-60 cell line screen, 48 h
DU-145 prostate = tested on: DU-145 prostate
HCC-2998 colon = tested on: HCC-2998 colon
HOP-92 NSCLC = tested on: HOP-92 NSCLC
HT29 colon = tested on: HT29 colon
K-562 leukemia = tested on: K-562 leukemia
M14 melanoma = tested on: M14 melanoma
NCI-H460 lung = tested on: NCI-H460 lung
NCI/ADR-RES ovarian = tested on: NCI/ADR-RES ovarian
SF-295 CNS = tested on: SF-295 CNS
UACC-62 melanoma = tested on: UACC-62 melanoma

SMILES | GI50 (DU-145 prostate) | TGI (DU-145 prostate) | GI50 (HCC-2998 colon) | TGI (HCC-2998 colon) | GI50 (HOP-92 NSCLC) | GI50 (HT29 colon) | TGI (HT29 colon) | GI50 (K-562 leukemia) | TGI (K-562 leukemia) [µM] | GI50 (M14 melanoma) | TGI (M14 melanoma) [µM] | GI50 (NCI-H460 lung) | TGI (NCI-H460 lung) [µM] | GI50 (NCI/ADR-RES ovarian) | TGI (NCI/ADR-RES ovarian) | GI50 (SF-295 CNS) | TGI (SF-295 CNS) | GI50 (UACC-62 melanoma) | TGI (UACC-62 melanoma) [µM] | TGI (HOP-92 NSCLC) [µM]
CC(=O)Nc1cccc(-n2c(=O)n(C3CC3)c(=O)c3c(Nc4ccc(I)cc4F)n(C)c(=O)c(C)c32)c1 | 3.36 µM and > 4.01 µM | 93.9 µM and > 10 µM | < 0.01 µM and 0.0024 µM | 15.7 µM and > 10 µM | < 0.01 µM and 0.011 µM | < 0.01 µM and 0.00172 µM | 15.9 µM and > 10 µM | 0.0955 µM and 0.196 µM | > 100 | < 0.01 µM and 0.00173 µM | < 0.01 | 3.19 µM and > 4.26 µM | > 93.6 | 2.29 µM and > 10 µM | 40.6 µM and > 10 µM | 7.21 µM and > 10 µM | 59.4 µM and > 10 µM | < 0.01 µM and 0.00184 µM | 0.0182 | –
COc1ccc(NC(=O)Nc2n[nH]c3ccccc23)cc1 | > 100 µM | > 100 µM | > 100 µM | > 100 µM | > 100 µM | > 100 µM | > 100 µM | > 100 µM | > 100 | > 100 µM | > 100 | > 100 µM | > 100 | > 100 µM | > 100 µM | > 100 µM | > 100 µM | > 100 µM | > 100 | > 100
COc1cc(/C=C\[N+](=O)[O-])ccc1O | 2.41 µM | 5.93 µM | 1.98 µM | 3.63 µM | 1.26 µM | 2.98 µM | 10.6 µM | 3.17 µM | 10.8 | 2.05 µM | 4.98 | 3.51 µM | 13.7 | 2.84 µM | 7.95 µM | 17.2 µM | 31.5 µM | 1.78 µM | 3.99 | 3.73
Cc1cc2nc3c4cc(Cl)ccc4n(CCN(C)C)c3nc2cc1C | 2.14 µM | 4.62 µM | 1.35 µM | 2.74 µM | 0.498 µM | 1.13 µM | 3.66 µM | 1.36 µM | 4.03 | 1.49 µM | 2.93 | 1.34 µM | 2.85 | 1.07 µM | 5.04 µM | 1.91 µM | 3.79 µM | 1.65 µM | 3.3 | 3.61
Cc1nn(-c2ccc(S(=O)(=O)[O-])cc2)c([O-])c1N=[N+](C)c1ccc(-c2ccc(N=Nc3ccc4c(S(=O)(=O)[O-])cc(S(=O)(=O)[O-])c(N)c4c3[O-])c([O-])c2)cc1[O-].[Cu+2].[Cu+2].[Na+] | > 100 µM | > 100 µM | > 100 µM | > 100 µM | > 100 µM | > 100 µM | > 100 µM | > 100 µM | > 100 | > 100 µM | > 100 | > 100 µM | > 100 | > 100 µM | > 100 µM | > 100 µM | > 100 µM | > 100 µM | > 100 | > 100
O=C(c1cccs1)c1c(C(F)(F)F)n([O-])c2ccccc2[n+]1=O | 0.695 µM | 1.34 µM | 0.663 µM | 1.3 µM | 0.99 µM | 1.08 µM | 4.13 µM | 1.64 µM | 8.77 | 0.771 µM | 1.58 | 0.234 µM | 0.597 | 0.677 µM | 1.94 µM | 0.941 µM | 2.43 µM | 0.743 µM | 1.6 | 2.28
COc1cc2c3c(cccc3c1)C(=O)N(CCN1CCCC1)C2=O | 2.13 µM | 5.97 µM | 2.63 µM | 7.19 µM | 1.55 µM | 1.79 µM | 20.2 µM | 3.62 µM | > 100 | 2.38 µM | 5.66 | 2.26 µM | 11.3 | 2.25 µM | 8.04 µM | 2.46 µM | 6.44 µM | 1.79 µM | 3.71 | 4.98
CN(C)CC(=O)N1CCC(c2ccc(NC(=O)c3ncc(C#N)[nH]3)c(C3=CCCCC3)c2)CC1 | 12 µM | 24.6 µM | 5.74 µM | 19 µM | 0.21 µM | 2.8 µM | 10.2 µM | 3.21 µM | 12 | 2.21 µM | 4.97 | 7.83 µM | 23.4 | 14.8 µM | 33.8 µM | 3.75 µM | 15.7 µM | 3.3 µM | 11.7 | 2.74
COc1cc(-n2cc(-c3ccc(Cl)c(Cl)c3)nc2SCc2ccccc2)cc(OC)c1OC | > 100 µM | > 100 µM | > 100 µM | > 100 µM | > 100 µM | > 100 µM | > 100 µM | > 100 µM | > 100 | > 100 µM | > 100 | > 100 µM | > 100 | > 100 µM | > 100 µM | > 100 µM | > 100 µM | > 100 µM | > 100 | > 100
C[C@@H]1CC[C@@H]2[C@@H]1[C@H](OC(=O)/C=C/c1ccccc1)[C@]1(c3ccccc3)C[C@@H](OC(=O)CO)[C@@]2(C)O1 | 15.9 µM | 33.8 µM | 14.6 µM | 29 µM | 6.52 µM | 15.9 µM | 37.8 µM | 7.76 µM | > 100 | 16.2 µM | 35.8 | 16.3 µM | 38.6 | 4.41 µM | 24.9 µM | 12.8 µM | 32.3 µM | 14.5 µM | 33.3 | 20.1
CC1(C)N=C(N)N=C(N)N1c1ccc(CCCCc2ccc(S(=O)(=O)F)cc2)cc1 | 0.833 µM | 28.2 µM | 4.55 µM | 26.7 µM | 4.48 µM | 0.4 µM | 21.3 µM | 0.472 µM | 28.8 | 1.16 µM | 23.3 | 0.153 µM | 13.3 | > 90.2 µM | > 100 µM | 5.71 µM | > 54.2 µM | 0.368 µM | 16.8 | 27.8
CCOc1ccc(S(=O)(=O)/N=C2\C=C(SCC(=O)O)C(=O)c3ccccc32)cc1 | 2.04 µM | 5.86 µM | 14.8 µM | 28.2 µM | 2.61 µM | 3.21 µM | 13 µM | 3.35 µM | 10.6 | 2.72 µM | 8.12 | 12.4 µM | 28.2 | 3.26 µM | 13.5 µM | 13 µM | 30.2 µM | 1.99 µM | 3.8 | 5.21
